The values below come from patent publication US9701691B2, “Thienopyrimidine compounds” (Hoffmann-La Roche Inc., priority 2012, dated 2017).

Counter-ions that a name gives are not always drawn. Where only a bound is given, the exact number is not on record here.

The first test has as its target Recombinant human full length SYK protein (Homo sapiens (Human), UniProt P43405). The experiment in a line: SYK kinase assay (33P ATP incorporation into biotinylated peptide). In kind it is biochemical. To be noted: ATP 20 μM. The procedure: This assay is performed in 96-well format for IC50 determination with 8 samples which represented 10 half log dilutions and a 40 μL reaction volume. […] Phosphorylated products were detected upon termination of reactions with EDTA and the addition of Streptavidin coated beads.
Assay plates: 96-well MultiScreen 0.65 um filter plates (Millipore Cat. No.: MADVNOB10)
final concentration: 50 mM HEPES pH7.5
BSA: Bovine Serum Albumin Fraction V, fatty acid free (Roche Diagnostics GmbH, Cat. No. 9100221) diluted to a final concentration of 0.1%
Assay Dilution Buffer (ADB): 50 mM HEPES, 0.1 mM EGTA, 0.1 mM Na Vanadate, 0.1 mM β-glycerophosphate, 10 mM MgCl2, 1 mM DTT, 0.1% BSA, pH 7.5
Bead wash buffer: 10 g/L PBS (Phosphate buffered saline) with 2M NaCl+1% phosphoric acid.
By IC50 is commonly meant the midpoint of a concentration-inhibition curve. As for `Cc1cc(NC(=O)c2csc3cnc(N[C@@H]4CCCC[C@@H]4N)nc23)cc2cccnc12` [Compound 2, 2-((1R,2S)-2-Amino-cyclohexylamino)-thieno[3,2-d]pyrimidine-7-carboxylic acid (8-methyl-quinolin-6-yl)-amide], the IC50 is less than 0.001 µM.

A further test relates to B-cell lymphocytes (CD20+) in human whole blood, CD69 up-regulation. Description: B Cell CD69 Up-Regulation Assay in Human Whole Blood. To be noted: goat anti-human IgM 50 μg/ml stimulation for 20 hrs, CD69hi CD20+ B cells, read-out: HWB, IC50. In kind it is cell-based. The procedure:
B Cell CD69 Up-Regulation Assay in Human Whole Blood
Human Blood was collected from healthy volunteers into Vacutainers (BD Biosciences, San Jose, Calif.) containing sodium heparin. Test compound was suspended in DMSO and nine half-log serial dilutions were made. The concentration of DMSO in the assay was 0.5%. […] whole blood was pre-incubated with compound for 30 min and then stimulated with goat anti-human IgM (50 μg/ml, Southern Biotech) for 20 hrs. At the end of the 20 hour incubation, samples were incubated with fluorochrome-conjugated antibodies, PE mouse anti-human CD20 and APC Mouse anti-human CD69 (BD Biosciences), for 30 minutes. Samples were then lysed with Lyse solution (BD) and washed with PBS containing 2% fetal bovine serum (FBS). Fluorescent signals were acquired on flow cytometer LSR II (BD) and data were analyzed by Flow Jo. The percentage of activated (CD69hi) B-cell lymphocytes (CD20+) were determined using un-stimulated (negative control) and stimulated (positive control) wells as reference guidelines. The percentage inhibition was calculated and an IC50 curve was constructed using Xfit in Microsoft Excel with sigmoidal curve fitting.
As for `CCc1cccc(NC(=O)c2csc3cnc(N[C@@H]4CCOC[C@@H]4N)nc23)n1` [Compound 1, 2-((3R,4R)-3-Amino-tetrahydro-pyran-4-ylamino)-thieno[3,2-d]pyrimidine-7-carboxylic acid (6-ethyl-pyridin-2-yl)-amide], the half-inhibitory concentration (IC50) worked out at 5.38 µM.
The same measure, in the same setting: the value for `Cc1cc(NC(=O)c2csc3cnc(N[C@@H]4CCCC[C@@H]4N)nc23)cc2cccnc12` [Compound 2, 2-((1R,2S)-2-Amino-cyclohexylamino)-thieno[3,2-d]pyrimidine-7-carboxylic acid (8-methyl-quinolin-6-yl)-amide] was 0.19 µM; that for `CCc1cc(NC(=O)c2csc3cnc(N[C@@H]4CCCC[C@@H]4N)nc23)cc2cccnc12` [Compound 3, 2-((1R,2S)-2-Amino-cyclohexylamino)-thieno[3,2-d]pyrimidine-7-carboxylic acid (8-ethyl-quinolin-6-yl)-amide] was 0.76 µM; that for `Cc1nc(NC(=O)c2csc3cnc(N[C@@H]4CCCC[C@@H]4N)nc23)ccc1C#N` [Compound 4, 2-((1R,2S)-2-Amino-cyclohexylamino)-thieno[3,2-d]pyrimidine-7-carboxylic acid (5-cyano-6-methyl-pyridin-2-yl)-amide] was 50 µM.
Same read-out and setting: then `N[C@H]1COCC[C@H]1Nc1ncc2scc(C(=O)Nc3cccc(-n4nccn4)n3)c2n1` [Compound 5, 2-((3R,4R)-3-Amino-tetrahydro-pyran-4-ylamino)-thieno[3,2-d]pyrimidine-7-carboxylic acid (6-[1,2,3]triazol-2-yl-pyridin-2-yl)-amide], with 3.79 µM; and `N[C@H]1COCC[C@H]1Nc1ncc2scc(C(=O)Nc3cccc(-n4ccnn4)n3)c2n1` [Compound 6, 2-((3R,4R)-3-Amino-tetrahydro-pyran-4-ylamino)-thieno[3,2-d]pyrimidine-7-carboxylic acid (6-[1,2,3]triazol-1-yl-pyridin-2-yl)-amide], with 4.29 µM; and `N[C@H]1CCCC[C@H]1Nc1ncc2scc(C(=O)Nc3ccc4cnccc4n3)c2n1` [Compound 7, 2-((1R,2S)-2-Amino-cyclohexylamino)-thieno[3,2-d]pyrimidine-7-carboxylic acid [1,6]naphthyridin-2-ylamide], with 0.55 µM.
On to `N[C@H]1CCCC[C@H]1Nc1ncc2scc(C(=O)Nc3nc4ccccc4s3)c2n1` [Compound 8, 2-((1R,2S)-2-Amino-cyclohexylamino)-thieno[3,2-d]pyrimidine-7-carboxylic acid benzothiazol-2-ylamide], for which the half-maximal inhibitory concentration (IC50) stood at 50 µM.
On the same count and under the same terms, then `N[C@H]1CCCC[C@H]1Nc1ncc2scc(C(=O)Nc3nc4ccccc4[nH]3)c2n1` [Compound 9, 2-((1R,2S)-2-Amino-cyclohexylamino)-thieno[3,2-d]pyrimidine-7-carboxylic acid (1H-benzoimidazol-2-yl)-amide], with 50 µM; and `N[C@H]1CCCC[C@H]1Nc1ncc2scc(C(=O)Nc3ccc4ncccc4n3)c2n1` [Compound 10, 2-((1R,2S)-2-Amino-cyclohexylamino)-thieno[3,2-d]pyrimidine-7-carboxylic acid [1,5]naphthyridin-2-ylamide], with 3.74 µM; and `Cn1cnc2c(NC(=O)c3csc4cnc(N[C@@H]5CCOC[C@@H]5N)nc34)cccc21` [Compound 11, 2-((3R,4R)-3-Amino-tetrahydro-pyran-4-ylamino)-thieno[3,2-d]pyrimidine-7-carboxylic acid (1-methyl-1H-benzoimidazol-4-yl)-amide hydrochloride], with 1.44 µM.
Turning to `Cn1cnc2c(NC(=O)c3csc4cnc(NCCN)nc34)cccc21` [Compound 12, 2-(2-Amino-ethylamino)-thieno[3,2-d]pyrimidine-7-carboxylic acid (1-methyl-1H-benzoimidazol-4-yl)-amide trifluoroacetate], the half-maximal inhibitory concentration (IC50) was 3.06 µM.
As for `Cn1nc(NC(=O)c2csc3cnc(N[C@@H]4CCCC[C@@H]4N)nc23)c2ccc(F)cc21` [Compound 15, 2-((1R,2S)-2-Amino-cyclohexylamino)-thieno[3,2-d]pyrimidine-7-carboxylic acid (6-fluoro-1-methyl-1H-indazol-3-yl)-amide trifluoroacetate], the half-inhibitory concentration (IC50) was 50 µM.
Turning to `N[C@H]1COCC[C@H]1Nc1ncc2scc(C(=O)Nc3ccc4ccccc4c3)c2n1` [Compound 16, 2-((3R,4R)-3-Amino-tetrahydro-pyran-4-ylamino)-thieno[3,2-d]pyrimidine-7-carboxylic acid naphthalen-2-ylamide], the IC50 turned out to be 3.73 µM.
As for `Cc1ccc(NC(=O)c2csc3cnc(N[C@@H]4CCOC[C@@H]4N)nc23)cc1` [Compound 18, 2-((3R,4R)-3-Amino-tetrahydro-pyran-4-ylamino)-thieno[3,2-d]pyrimidine-7-carboxylic acid p-tolylamide], the IC50 turned out to be 12.2 µM.
Regarding `Cn1ccc(NC(=O)c2csc3cnc(N[C@@H]4CCOC[C@@H]4N)nc23)n1` [Compound 19, 2-((3R,4R)-3-Amino-tetrahydro-pyran-4-ylamino)-thieno[3,2-d]pyrimidine-7-carboxylic acid (1-methyl-1H-pyrazol-3-yl)-amide], the 50% inhibitory concentration (IC50) turned out to be 10.7 µM.
Still for that read-out and setting: then `Cn1cc(NC(=O)c2csc3cnc(N[C@@H]4CCOC[C@@H]4N)nc23)cn1` [Compound 21, 2-((3R,4R)-3-Amino-tetrahydro-pyran-4-ylamino)-thieno[3,2-d]pyrimidine-7-carboxylic acid (1-methyl-1H-pyrazol-4-yl)-amide], with 5.8 µM; and `N[C@H]1COCC[C@H]1Nc1ncc2scc(C(=O)Nc3cnn4cccnc34)c2n1` [Compound 22, 2-((3R,4R)-3-Amino-tetrahydro-pyran-4-ylamino)-thieno[3,2-d]pyrimidine-7-carboxylic acid pyrazolo[1,5-a]pyrimidin-3-ylamide], with 0.92 µM; and `N[C@H]1COCC[C@H]1Nc1ncc2scc(C(=O)Nc3cnc4cccnn34)c2n1` [Compound 23, 2-((3R,4R)-3-Amino-tetrahydro-pyran-4-ylamino)-thieno[3,2-d]pyrimidine-7-carboxylic acid imidazo[1,2-b]pyridazin-3-ylamide], with 1.36 µM.
For the compound `Cc1cc(C)nc(NC(=O)c2csc3cnc(N[C@@H]4CCOC[C@@H]4N)nc23)c1` [Compound 24, 2-((3R,4R)-3-Amino-tetrahydro-pyran-4-ylamino)-thieno[3,2-d]pyrimidine-7-carboxylic acid (4,6-dimethyl-pyridin-2-yl)-amide], the IC50 is 1.53 µM.
Still for that read-out and setting: then `Cc1ccc(NC(=O)c2csc3cnc(N[C@@H]4CCOC[C@@H]4N)nc23)nc1C` [Compound 25, 2-((3R,4R)-3-Amino-tetrahydro-pyran-4-ylamino)-thieno[3,2-d]pyrimidine-7-carboxylic acid (5,6-dimethyl-pyridin-2-yl)-amide], with 1.67 µM.
